Tests used:
Format in all cases: cell-based
p70S6K = assay: Luminex multiplex assay, p70S6K phosphorylation in cell lysates; details: PC3 cell line; read-out: Luminex p70S6K
Excerpt: (§1) The multiplex Luminex assay format differs from conventional enzyme-linked immunosorbent assay (ELISA) in that the multiplex capture antibody is attached to a polystyrene bead whereas the ELISA capture antibody is attached to the microplate well. The use of the suspension bead-based technology enables the multiplexing capabilities of the Luminex assays. The xMAP® technology uses 5.6 micron polystyrene microspheres, which are internally dyed with red and infrared fluorophores of differing intensities. Each bead is given a unique number, or bead region, allowing differentiation of one bead from another. Beads covalently bound to different specific antibodies can be mixed in the same assay, utilizing a 96-well microplate format. At the completion of the sandwich immunoassay, beads can be read, using the Luminex 100™ or Luminex 200 detection system, in single-file by dual lasers for classification and quantification of each analyte. The Akt-Pathway Phospho 5-plex kit used was custom made and includes the ability to simultaneously measure p-GSK3β (S9), p-PRAS40(T246), and p-4E-BP1(T46).
(§2) Cells were plated at the required density. The cells were treated with either Compound 1 or rapamycin over a range of concentrations for 1 hour in 5% CO2 at 37° C. Compound 1 and rapamycin were used at the same concentrations as for the proliferation assay. As for the cell proliferation assay, a reference standard was included in the assay for PC3 cells and the coefficient of variation for assay of p-GSK3β(S9) was 37.8% (n=30), p-PRAS40(T246) was 27.8% (n=30) and for p4E-BP1(T46) was 13.5% (n=4). For three cell lines (HCT-116, MDA-MB-231 and HT29) in the assay for phosphorylation of GSK3β, PRAS40 and 4E-BP1, IGF-I stimulation (500 ng/mL, recombinant human IGF-I) for the last 10 min of incubation was used. The media was aspirated from the wells and the plate was placed on ice. Then 35 μL of Lysis Buffer was added to each well and incubated on ice for at least 30 minutes. During the incubation, the standard curve for each phosphoprotein was prepared. The standards provided were reconstituted and serial dilutions were prepared according to the manufacturer's instructions. At the end of the cell lysis step, […] of the lysate was transferred to a V-bottom plate and spun at 4° C. at 2000 rpm for 5 minutes. Both the 1× Luminex bead and 1× detector antibody solutions were prepared during this time. The 1× bead solution was vortexed and 25 μL was added into each well of a black round bottom plate. Then 50 μL of the 1× detector antibody was added to each well. Fifty microliters (50 μL) of the prepared standards were added to the designated wells. Then 25 μL of the assay diluent was added to each well designated for the compound-treated cell lysates. At the end of the spin, 25 μL of cell lysate was added to the corresponding wells of the black assay plate. The assay plate was covered with the white plate lid and incubated for 3 hours at room temperature on an orbital shaker.
(§3) Approximately 10-15 minutes prior to the end of the first incubation, the secondary antibody solution was prepared according to the vendor's protocol. Goat anti-rabbit R-phycoerythrin red fluorescent protein (RPE) supplied as a 10× concentrate was diluted to generate a 1× goat anti-rabbit RPE stock. The 96-well filter plate was pre-wet with 200 μL of 1× Working wash solution. At the end of the 3 hour incubation, a multichannel pipette was used to transfer the entire contents from each assay well into the wells of the filter plate. The liquid from the wells was removed by aspiration with the vacuum manifold. Then 200 μL of 1× Working wash solution was added into each well. The wash solution was aspirated using the vacuum manifold after 15-30 seconds. This wash step was repeated one time. The bottom of the plate was blotted on clean paper towels to remove residual liquid. […]

Phospho-PRAS40(T246) = assay: Luminex multiplex assay, Phospho-PRAS40(T246); details: PC3 cell line; read-out: Luminex PRAS40
Excerpt: (§4) Determination of Phospho-GSK3β(S9), Phospho-PRAS40(T246) and Phospho-4E-BP1(T46) and the Effect of Compound 1 or Rapamycin.
as §1, §2, §3

Phospho-GSK3β(S9) = assay: Luminex multiplex assay, Phospho-GSK3β(S9); details: PC3 cell line; read-out: Luminex GSK-3β
Excerpt: as §4, §1, §2, §3

Row | Structure (SMILES) | IC50 (p70S6K) [µM] | IC50 (Phospho-PRAS40(T246)) [µM] | IC50 (Phospho-GSK3β(S9)) [µM]
1 | COCCN1C(=O)CNc2ncc(-c3ccc(-c4nnc[nH]4)c(F)c3)nc21 [C-27] | 0.008 | 0.027 | 0.032
2 | Cc1cc(-c2nnc[nH]2)ncc1-c1cnc2c(n1)N(CC1CCOCC1)C(C)(C)C(=O)N2 [C-30] | 0.001 | 0.005 | 0.021
3 | Cc1cc(-c2nnc[nH]2)ccc1-c1cnc2c(n1)N(Cc1ccccc1)C(=O)CN2 [C-31] | 0.002 | 0.014 | > 5
4 | COCCN1CC(=O)Nc2ncc(-c3ccc(-c4nnc[nH]4)c(F)c3C)nc21 [C-32] | 0.012 | 0.059 | 0.169
5 | Cc1c(-c2cnc3c(n2)N(CCC2CCOCC2)CC(=O)N3)ccc(-c2nnc[nH]2)c1F [C-34] | 0.021 | 1.52 | > 5
6 | Cc1cc(-c2cnc3c(n2)N(CC2CCOCC2)C(=O)CN3)cc2[nH]c(=O)[nH]c12 [C-38] | 5 | 3.25 | > 5
7 | CNc1nc2c(C)cc(-c3cnc4c(n3)N(CCOC)C(=O)CN4)cc2[nH]1 [C-39] | 0.283 | 1.41 | > 5
8 | O=C1CN(CCC2CCOCC2)c2nc(-c3ccc4[nH]ccc4c3)cnc2N1 [C-40] | 1.52 | > 5 | > 5
9 | O=C1CN(CCC2CCOCC2)c2nc(-c3ccc4cc[nH]c4c3)cnc2N1 [C-41] | 0.746 | 5 | 3.18
10 | COCCn1c(=O)[nH]c2ncc(-c3cnc4[nH]ccc4c3)nc21 [C-43] | 0.201 | 0.524 | 0.214
11 | O=C1CNc2ncc(-c3ccc4cc[nH]c4c3)nc2N1CCC1CCOCC1 [C-49] | 0.468 | 1.99 | 3.84
12 | CO[C@H]1CC[C@H](N2CC(=O)Nc3ncc(-c4ccc(-c5nnc[nH]5)nc4C)nc32)C1 [C-50] | 0.048 | > 0.5 | > 0.5
13 | O=C1CNc2ncc(-c3ccc4[nH]ccc4c3)nc2N1CCC1CCOCC1 [C-55] | 0.025 | 0.228 | 0.341
14 | CO[C@H]1CC[C@H](N2C(=O)CNc3ncc(-c4ccc(-c5nnc[nH]5)nc4C)nc32)C1 [C-56] | 0.045 | 0.113 | 0.269
15 | CO[C@H]1CC[C@@H](N2C(=O)CNc3ncc(-c4ccc(-c5nnc[nH]5)nc4C)nc32)C1 [C-57] | 0.006 | 0.123 | 0.17
16 | CO[C@@H]1CC[C@@H](N2C(=O)CNc3ncc(-c4ccc(-c5nnc[nH]5)nc4C)nc32)C1 [C-58] | 0.048 | 0.209 | 0.507
17 | COC1CCC(N2C(=O)CNc3ncc(-c4ccc(-c5nnc[nH]5)nc4C)nc32)C1 (stereo not drawn) [C-59] | 0.028 | 0.099 | 0.126
18 | O=C1CNc2ncc(-c3cnc4[nH]ccc4c3)nc2N1CCC1CCOCC1 [C-61] | 0.003 | 0.021 | 0.033
19 | O=C1CNc2ncc(-c3ccc4[nH]ncc4c3)nc2N1CCC1CCOCC1 [C-62] | 0.033 | 0.349 | 0.568
20 | NC(=O)c1ccc(-c2cnc3c(n2)N(CCC2CCOCC2)C(=O)CN3)cc1 [C-63] | 0.216 | 0.842 | 0.927
21 | O=C1CNc2ncc(-c3cnc4nc[nH]c4c3)nc2N1CCC1CCOCC1 [C-67] | > 1.5 | > 1.5 | > 1.5
22 | O=C1CNc2ncc(-c3ccc4cn[nH]c4c3)nc2N1CCC1CCOCC1 [C-75] | 0.173 | > 1.5 | > 1.5
23 | O=c1[nH]c2ncc(-c3ccc(C4(O)COC4)nc3)nc2n1CCC1CCOCC1 [C-76] | > 1.5 | > 1.5 | > 1.5
24 | O=c1[nH]c2ncc(-c3ccc(C4(O)COC4)cn3)nc2n1CCC1CCOCC1 [C-77] | > 1.5 | > 1.5 | > 1.5

Results, then the compound that gave them:

Row | IC50 (p70S6K) [µM] | IC50 (Phospho-PRAS40(T246)) [µM] | IC50 (Phospho-GSK3β(S9)) [µM] | Structure (SMILES)
25 | 0.843 | 3.66 | > 5 | CO[C@H]1CC[C@H](N2CC(=O)Nc3ncc(-c4ccc(C(C)(C)O)nc4)nc32)C1 [C-24]
26 | 0.094 | 0.705 | 1.78 | CO[C@@H]1CC[C@@H](CN2CC(=O)Nc3ncc(-c4ccc(C(C)(C)O)nc4)nc32)C1 [C-25]
27 | 0.104 | 0.498 | 1.43 | CO[C@H]1CC[C@H](CN2CC(=O)Nc3ncc(-c4ccc(C(C)(C)O)nc4)nc32)C1 [C-26]
28 | 0.452 | 2.36 | > 5 | CO[C@@H]1CC[C@H](N2CC(=O)Nc3ncc(-c4ccc(C(C)(C)O)nc4)nc32)C1 [C-28]
29 | 0.235 | 2.13 | > 5 | COC1CCC(N2CC(=O)Nc3ncc(-c4ccc(C(C)(C)O)nc4)nc32)C1 (stereo not drawn) [C-29]
30 | 0.016 | 0.044 | 0.268 | COC1CCC(CN2C(=O)CNc3ncc(-c4ccc(C(C)(C)O)nc4)nc32)CC1 (stereo not drawn) [C-42]
31 | 0.017 | 0.098 | 0.313 | O=C1CN(CCC2CCOCC2)c2nc(-c3cnc4[nH]ccc4c3)cnc2N1 [C-44]
32 | 0.497 | 1.47 | 3.11 | CC(C)(O)c1ccc(-c2cnc3c(n2)N(C2CCOCC2)C(=O)CN3)cn1 [C-47]
33 | 0.08 | 0.415 | 0.502 | COC1CCC(N2C(=O)CNc3ncc(-c4ccc(C(C)(C)O)cc4)nc32)CC1 (stereo not drawn) [C-48]
34 | 0.046 | 0.816 | 0.859 | COC1CCC(N2CC(=O)Nc3ncc(-c4ccc(-c5nnc[nH]5)nc4C)nc32)C1 (stereo not drawn) [C-51]
35 | 0.088 | 0.96 | 1.1 | COC1CCC(N2CC(=O)Nc3ncc(-c4ccc(-c5nnc[nH]5)nc4C)nc32)C1 (stereo not drawn) [C-52]
36 | 0.232 | 1.16 | 1.14 | COC1CCC(N2CC(=O)Nc3ncc(-c4ccc(-c5nnc[nH]5)nc4C)nc32)C1 (stereo not drawn) [C-53]
37 | 0.061 | 0.349 | 0.299 | CC(C)(O)c1ccc(-c2cnc3c(n2)N([C@H]2CC[C@@H](O)CC2)C(=O)CN3)cn1 [C-64]
38 | 0.04 | 0.207 | 0.266 | CC(C)(O)c1ccc(-c2cnc3c(n2)N([C@H]2CC[C@H](O)CC2)C(=O)CN3)cn1 [C-65]
39 | 0.752 | > 1.5 | > 1.5 | O=C1CN(CCC2CCOCC2)c2nc(-c3ccc4cn[nH]c4c3)cnc2N1 [C-68]
40 | 0.54 | > 1.5 | 0.7 | CC(C)(O)c1ccc(-c2cnc3c(n2)N(CCN2CCOCC2)C(=O)CN3)cn1 [C-70]
41 | > 1.5 | > 1.5 | > 1.5 | O=C1CN(CCC2CCOCC2)c2nc(-c3cnc4nc[nH]c4c3)cnc2N1 [C-74]
42 | 1.29 | > 1.5 | > 1.5 | COC1CCC(N2C(=O)CNc3ncc(-c4ccc(C(C)(C)O)nc4)nc32)C1 (stereo not drawn) [C-78]
43 | 0.981 | > 1.5 | > 1.5 | CO[C@H]1CC[C@H](N2C(=O)CNc3ncc(-c4ccc(C(C)(C)O)nc4)nc32)C1 [C-79]
44 | 0.133 | 0.724 | 0.841 | CO[C@@H]1CC[C@H](N2C(=O)CNc3ncc(-c4ccc(C(C)(C)O)nc4)nc32)C1 [C-80]
45 | 0.134 | 0.847 | > 1.5 | COC1CCC(N2C(=O)CNc3ncc(-c4ccc(C(C)(C)O)nc4)nc32)C1 (stereo not drawn) [C-81]
46 | 0.467 | > 1.5 | > 1.5 | COC1CCC(N2CC(=O)Nc3ncc(-c4cnc(C(N)=O)cc4C)nc32)CC1 (stereo not drawn) [C-82]
